Experimental data: patent publication US20110015067A1, “Herbicidal Compositions Comprising Pyroxasulfone” (BASF SE, priority 2008, published 2011)
Like-named read-outs stand apart in the source and are kept apart here.

What was measured:
[1] = system: AMBEL (Ambrosia artemisifolia); test: pre-emergence greenhouse test; type: in vivo; settings: for observed activity in % destruction: pre-emergence, 50 g ai/ha
Method in brief: (§1)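 Pre-emergence spray right after sowing; actives in water, herbicide A/safener as 10% w/w SC, herbicide B/safener as commercial formulations. Hooded until rooted, 20-day test. Damage scored 0 (none) to 100% (complete kill) vs untreated, at 8 and/or 20 DAT.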

[2] = system: COMBE (Commelina benghalensis); test: pre-emergence greenhouse test; type: in vivo; settings: for inhibition at 12.5 g/ha: Commelina benghalensis, use rate 12.5 g ai/ha, read-out: observed % activity; for inhibition at 12.5 g/ha / observed activity in % destruction: pre-emergence
Method in brief: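 Compounds suspended or emulsified in water were sprayed through fine nozzles directly after sowing, then pots were gently irrigated and kept under transparent hoods until rooting. Herbicidal effect of solo compounds and mixtures was rated 8 and/or 20 days after treatment on a 0–100% damage scale versus untreated controls.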

[3] = system: PHBPU (Ipomoea purpurea); test: pre-emergence greenhouse test; type: in vivo; settings: for observed activity in % destruction: pre-emergence, 50 g ai/ha
Method in brief: as §1

[4] = system: SETFA (Setaria faberii); test: post-emergence greenhouse test; type: in vivo; settings: Setaria faberi, use rate 25 g ai/ha, read-out: observed % activity
Method in brief: (§2)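 Plants grown to 3–20 cm, then sprayed post-emergence with herbicides, solo or mixed, with or without safener, in water as carrier. Damage scored visually 0–100% versus untreated controls at 8 and/or 20 days after treatment.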

[5] = system: MERAN (Mercurialis annua); test: post-emergence greenhouse test; type: in vivo; settings: for observed activity in % destruction: 50 g ai/ha; for inhibition at 50 g/ha: Mercurialis annua, use rate 50 g ai/ha, read-out: observed % activity
Method in brief: as §2

[6] = system: ERBVI; test: post-emergence greenhouse test; type: in vivo; settings: use rate 12.5 g ai/ha, read-out: observed % activity
Method in brief: as §2

[7] = system: PANDI (Panicum dichotomiflorum); test: post-emergence greenhouse test; type: in vivo; settings: use rate 25 g ai/ha, read-out: observed % activity
Method in brief: as §2

[8] = system: AMBEL (Ambrosia artemisifolia); test: post-emergence greenhouse test; type: in vivo; settings: for observed activity in % destruction: 25 g ai/ha; for inhibition at 50 g/ha: Ambrosia, use rate 50 g ai/ha, read-out: observed % activity
Method in brief: as §2

[9] = system: ALOMY (Alopecurus myosuroides); test: post-emergence greenhouse test; type: in vivo; settings: for observed activity in % destruction: 50 g ai/ha; for inhibition at 6.25 g/ha / inhibition at 25 g/ha / inhibition at 50 g/ha: Alopecurus myosuroides, read-out: observed % activity; for inhibition at 6.25 g/ha: use rate 6.25 g ai/ha; for inhibition at 25 g/ha: use rate 25 g ai/ha; for inhibition at 50 g/ha: use rate 50 g ai/ha
Method in brief: as §2

[10] = system: SETVI (Setaria viridis); test: post-emergence greenhouse test; type: in vivo; settings: use rate 6.25 g ai/ha, read-out: observed % activity
Method in brief: as §2

[11] = system: COMBE (Commelina benghalensis); test: post-emergence greenhouse test; type: in vivo; settings: read-out: observed % activity; for inhibition at 6.25 g/ha: Table 18, use rate 6.25 g ai/ha; for inhibition at 12.5 g/ha: Table 20, use rate 12.5 g ai/ha
Method in brief: as §2

[12] = system: ELEIN (Eleusine indica); test: post-emergence greenhouse test; type: in vivo; settings: use rate 6.25 g ai/ha, read-out: observed % activity
Method in brief: as §2

[13] = system: CHEAL (Chenopodium album); test: post-emergence greenhouse test; type: in vivo; settings: for inhibition at 6.25 g/ha / inhibition at 25 g/ha / inhibition at 50 g/ha: Chenopodium album, read-out: observed % activity; for inhibition at 6.25 g/ha: use rate 6.25 g ai/ha; for inhibition at 25 g/ha: use rate 25 g ai/ha; for inhibition at 50 g/ha: use rate 50 g ai/ha
Method in brief: as §2

[14] = system: BRAPL (Brachiaria plantaginea); test: post-emergence greenhouse test; type: in vivo; settings: Urochloa plantaginea, read-out: observed % activity; for inhibition at 6.25 g/ha: use rate 6.25 g ai/ha; for inhibition at 12.5 g/ha: use rate 12.5 g ai/ha
Method in brief: as §2

[15] = system: ABUTH (Abutilon theophrasti); test: post-emergence greenhouse test; type: in vivo; settings: use rate 6.25 g ai/ha, read-out: observed % activity
Method in brief: as §2

[16] = system: LOLMU (Lolium multiflorum); test: post-emergence greenhouse test; type: in vivo; settings: 50 g ai/ha
Method in brief: as §2

[17] = system: ECHCG (Echinochloa crus-galli); test: post-emergence greenhouse test; type: in vivo; settings: use rate 6.25 g ai/ha, read-out: observed % activity
Method in brief: as §2

[18] = system: harmful plants; settings: known from Y. Yamaji et al. 2006; cited from earlier work
[19] = COMBE pre-emergence 6.25 g ai/ha
[20] = COMBE pre-emergence 12.5 g ai/ha

## Cn1nc(C(F)(F)F)c(CS(=O)(=O)C2=NOC(C)(C)C2)c1OC(F)F [pyroxasulfone, 3-[5-(difluoromethoxy)-1-methyl-3-(trifluoromethyl)pyrazol-4-ylmethylsulfonyl]-4,5-dihydro-5,5-dimethyl-1,2-oxazole]
[1]; AMBEL pre-emergence 6.25 g ai/ha
  observed % destruction 20 DAT: 0%
[1]; AMBEL pre-emergence 12.5 g ai/ha
  observed % destruction 20 DAT: 40%
[1]; AMBEL pre-emergence 25 g ai/ha
  observed % destruction 20 DAT: 40%
[1]; AMBEL pre-emergence 50 g ai/ha
  observed % destruction 8 DAT: 50%
  observed % destruction 20 DAT: 85%
[1]; 8 DAT
  observed activity in % destruction: 50%
[1]; 20 DAT
  observed activity in % destruction: 85%
[2]; [19]
  observed % destruction 8 DAT: 40%
  observed % destruction 20 DAT: 70%
[2]; [20]
  observed % destruction 8 DAT: 75%
  observed % destruction 20 DAT: 98%
[2]; COMBE pre-emergence 25 g ai/ha
  observed % destruction 8 DAT: 95%
  observed % destruction 20 DAT: 100%
[2]; 192 h, 8 DAT
  inhibition at 12.5 g/ha: 75%
[2]; 480 h, 20 DAT
  inhibition at 12.5 g/ha: 98%
[2]; 6.25 g ai/ha, 8 DAT
  observed activity in % destruction: 40%
[2]; 6.25 g ai/ha, 20 DAT
  observed activity in % destruction: 70%
[2]; 12.5 g ai/ha, 8 DAT
  observed activity in % destruction: 75%
[2]; 12.5 g ai/ha, 20 DAT
  observed activity in % destruction: 98%
[2]; 25 g ai/ha, 8 DAT
  observed activity in % destruction: 95%
[2]; 25 g ai/ha, 20 DAT
  observed activity in % destruction: 100%
[3]; PHBPU pre-emergence 6.25 g ai/ha
  observed % destruction 20 DAT: 0%
[3]; PHBPU pre-emergence 12.5 g ai/ha
  observed % destruction 20 DAT: 55%
[3]; PHBPU pre-emergence 50 g ai/ha
  observed % destruction 20 DAT: 75%
[3]; 8 DAT
  observed activity in % destruction: 30%
[3]; 20 DAT
  observed activity in % destruction: 75%
[4]; 192 h, 8 DAT
  inhibition at 25 g/ha: 55%
[4]; 480 h, 20 DAT
  inhibition at 25 g/ha: 90%
[5]; 8 DAT
  observed activity in % destruction: 45%
[5]; 20 DAT
  observed activity in % destruction: 85%
[5]; 192 h, 8 DAT
  inhibition at 50 g/ha: 45%
[5]; 480 h, 20 DAT
  inhibition at 50 g/ha: 85%
[6]; 192 h, 8 DAT
  inhibition at 12.5 g/ha: 40%
[6]; 480 h, 20 DAT
  inhibition at 12.5 g/ha: 75%
[7]; 192 h, 8 DAT
  inhibition at 25 g/ha: 60%
[7]; 480 h, 20 DAT
  inhibition at 25 g/ha: 85%
[8]; 8 DAT
  observed activity in % destruction: 50%
[8]; 20 DAT
  observed activity in % destruction: 40%
[8]; 192 h, 8 DAT
  inhibition at 50 g/ha: 50%
[8]; 480 h, 20 DAT
  inhibition at 50 g/ha: 70%
[9]; 8 DAT
  observed activity in % destruction: 30%
[9]; 20 DAT
  observed activity in % destruction: 75%
[9]; 192 h, 8 DAT
  inhibition at 6.25 g/ha: 20%
  inhibition at 25 g/ha: 30%
  inhibition at 50 g/ha: 30%
[9]; 480 h, 20 DAT
  inhibition at 6.25 g/ha: 30%
  inhibition at 25 g/ha: 55%
  inhibition at 50 g/ha: 75%
[10]; 192 h, 8 DAT
  inhibition at 6.25 g/ha: 40%
[10]; 480 h, 20 DAT
  inhibition at 6.25 g/ha: 75%
[11]; 192 h, 8 DAT
  inhibition at 6.25 g/ha: 20%
  inhibition at 12.5 g/ha: 30%
[11]; 480 h, 20 DAT
  inhibition at 6.25 g/ha: 20%
  inhibition at 12.5 g/ha: 40%
[12]; 192 h, 8 DAT
  inhibition at 6.25 g/ha: 55%
[12]; 480 h, 20 DAT
  inhibition at 6.25 g/ha: 90%
[13]; 6.25 g ai/ha, 8 DAT
  observed activity in % destruction: 0%
[13]; 6.25 g ai/ha, 20 DAT
  observed activity in % destruction: 0%
[13]; 12.5 g ai/ha, 8 DAT
  observed activity in % destruction: 20%
[13]; 12.5 g ai/ha, 20 DAT
  observed activity in % destruction: 30%
[13]; 25 g ai/ha, 8 DAT
  observed activity in % destruction: 35%
[13]; 25 g ai/ha, 20 DAT
  observed activity in % destruction: 30%
[13]; 50 g ai/ha, 8 DAT
  observed activity in % destruction: 45%
[13]; 50 g ai/ha, 20 DAT
  observed activity in % destruction: 60%
[13]; 192 h, 8 DAT
  inhibition at 6.25 g/ha: 0%
  inhibition at 25 g/ha: 35%
  inhibition at 50 g/ha: 45%
[13]; 480 h, 20 DAT
  inhibition at 6.25 g/ha: 0%
  inhibition at 25 g/ha: 30%
  inhibition at 50 g/ha: 60%
[14]; 192 h, 8 DAT
  inhibition at 6.25 g/ha: 20%
  inhibition at 12.5 g/ha: 30%
[14]; 480 h, 20 DAT
  inhibition at 6.25 g/ha: 40%
  inhibition at 12.5 g/ha: 45%
[15]; 192 h, 8 DAT
  inhibition at 6.25 g/ha: 40%
[15]; 480 h, 20 DAT
  inhibition at 6.25 g/ha: 40%
[16]; 8 DAT
  observed activity in % destruction: 60%
[16]; 20 DAT
  observed activity in % destruction: 80%
[17]; 192 h, 8 DAT
  inhibition at 6.25 g/ha: 30%
[17]; 480 h, 20 DAT
  inhibition at 6.25 g/ha: 80%
[18]
  post-emergence activity: poor
